These results are taken from patent US20170327556A1, “CARTILAGE-BINDING FUSION PROTEINS” (Merrimack Pharmaceuticals, Inc., priority 2013, published 2017).

“Also recorded” adds a separate entry of the source.

The subject of experiment [1] is bovine cartilage explants. Description: In vitro joint disease model (IL-1), explanted bovine cartilage: ^35S-sulfate incorporation. Type of experiment: cell-based. As to conditions: for cartilage matrix synthesis (^35S-sulfate incorporation): supplied in every medium change for 8 or 12 days, IL-1, final 48 hrs, versus Disease control. From the text:
(§1) Bovine cartilage explants (3 mm diameter, 1.2 mm thick) are harvested from the femoral patellar groove of 2-4 week old bovine calves. Knee joints are mounted by removing all tissue surrounding the femur, removing the femoral head with a bone saw or hack saw, and clamping in a tissue vice. Joints are aseptically opened, removing the patella, tibia and fibula. Using a 3 mm diameter disposable biopsy punch, approximately 80×3 mm diameter full thickness cartilage cores are punched from the femoral-patellar groove. A sterile knife is used to slice the cores at the cartilage-bone interface. Cores are then inserted into 3 mm diameter holes in a 1.2 mm thick sterile stainless steel plate and sliced flush with the plate using sterile razor blades to remove the excess core length, resulting in 3 mm diameter, 1.2 mm thick cartilage explants with the superficial zone cartilage intact.
(§2) Explants are cultured in 96-well plates in 300 μL of medium consisting of low glucose DMEM (1× Gibco 11885-084), Penicillin-Streptomycin (1×, Gibco 15140-122), ascorbic acid (20 μg/mL, Sigma A4403), proline (400 μM, Sigma P5607-256), non-essential amino acids (1×, Sigma M7145), and HEPES (100 mM, Gibco 15630-080). Explants from three animals (n=2-3 per animal) are used in each treatment condition for a total explant number of 8-9 per condition. Medium is changed every 2 days. On days 6 and 10, the medium is supplemented with 5 μCi/mL of ^35S-sodium sulfate (Perkin Elmer NEX041H001MC, 1 mCi).
(§3) Timepoints are taken at day 8 and 12: explant tissue is washed four times for 30 min each (2 hr total) in 1 mM unlabeled sodium sulfate in PBS. Each explant is weighed wet and frozen at −20° C. until digestion. Tissue digestion was performed with Proteinase K (Roche cat #3115879001) and each explant is digested in 1 mL 100 μg/mL Proteinase K in 50 mM Tris-HCL, 1 mM Calcium Chloride pH=8.0 buffer at 60° C. overnight. Measurement of sGAG content and DNA content is performed using standard assay methods such as those described in Hoemann, 2004, Methods in Molecular Medicine: Cartilage and Osteoarthritis. Totowa, N.J.: Humana Press Inc.; p. 127-52. ^35S-sulfate content of the digested cartilage explants was quantified by mixing 20 μL of digest with 250 μL of scintillation fluid (Perkin Elmer cat #1200-439) and counting with a WALLAC 1450 MICROBETA TRILUX scintillation counter.
(§4) Treatments were given at the following concentrations: wtIGF-1 13.3 nM=100 ng/mL (IGF-1 R&D systems 291-G1); GF-Fus1 (6x-Histidine tagged) 13.3 nM=135 ng/mL; GF-Fus2 (6x-Histidine tagged) 13.3 nM=140 ng/mL; and GF-Fus3 (6x-Histidine tagged)13.3 nM=181 ng/mL. All treatments included IL-1 and were given for either 4 days or the entire culture duration. The outcomes measured were ^35S-sulfate incorporation, DNA content, and sGAG content of plug at endpoint, and sGAG released to media for all media changes. Controls were either no treatment (Healthy) or IL-1 alone at 1 ng/mL (Disease).
(§5) FIG. 4 depicts a graph of cartilage matrix loss as measured by the cumulative percentage of total sGAG lost to the culture medium against time (days). Percentage loss is calculated by dividing the cumulative sGAG in the culture medium by the total sGAG present in the medium over the culture period plus the sGAG remaining in the explant at the end of culture. Cartilage matrix loss was reduced by each IGF fusion protein relative to the disease control at a level similar to wild-type IGF. New cartilage matrix synthesis (i.e. sulfated proteoglycan synthesis is measured by ^35S-Sulfate incorporation) during the final 48 hrs of cultures terminated at day 8 and day 12 is shown in FIGS. 5A and 5B, respectively. Cartilage matrix synthesis was increased compared to disease control by all fusion proteins (GF-Fus1, GF-Fus2, and GF-Fus3) and wild-type IGF when the fusion proteins were supplied in every medium change for the entire culture duration of 8 and 12 days (black bars). […]

The subject of experiment [2] is bovine cartilage explants. Description: In vitro joint disease model (IL-1), explanted bovine cartilage: sGAG loss. As to conditions: for cartilage matrix loss (% sGAG loss): 13.3 nM supplied in every medium change, IL-1, relative to Disease control; for cartilage matrix loss (% sGAG loss), 4 days versus 12 days of treatment: protein in medium day 0-4 only versus 12 days, IL-1, FIG. 7. In kind it is cell-based.
Description: as §1, §2, §3, §4, §5

As for “GF-Fus1: IGF-1 variant polypeptide Long [R^3]-IGF-1, no fused binding domain; used 6x-Histidine-tagged as control [reference compound]”, the “cartilage matrix synthesis (^35S-sulfate incorporation)” value in experiment [1] is listed as “increase; also recorded: stimulated cartilage matrix biosynthesis”. In addition, in experiment [2], the “cartilage matrix loss (% sGAG loss)” value is “reduced” and the “cartilage matrix loss (% sGAG loss), 4 days versus 12 days of treatment” value is recorded as “higher sGAG loss than 12 days of treatment”.

For “GF-Fus3: C-terminal fusion IGF-1(LR3)-PRELP heparin binding domain”, the “cartilage matrix synthesis (^35S-sulfate incorporation)” value in experiment [1] is on record as “increase; also recorded: stimulated cartilage matrix biosynthesis”. Besides, in experiment [1] (treatment day 0-4 only, measured at day 8 and day 12, IL-1), the “cartilage matrix synthesis (^35S-sulfate incorporation) after fusion protein removal” value is recorded as “highest; also recorded: increased proteoglycan biosynthesis by an equivalent amount; also recorded: largest increase”. In addition, in experiment [2], the “cartilage matrix loss (% sGAG loss)” value is on record as “reduced” and the “cartilage matrix loss (% sGAG loss), 4 days versus 12 days of treatment” value is “reduced sGAG loss by an equivalent amount”.

“GF-Fus5: IGF-1(LR3) fused to CNA35 CB domain”: the “cartilage matrix synthesis (^35S-sulfate incorporation)” value in experiment [1] was “increase”. Also, the “cartilage matrix loss (% sGAG loss)” value in experiment [2] is reported as “reduced”.

Regarding “GF-Fus6: IGF-1(LR3) fused to CNA344 CB domain”, in experiment [1], the “cartilage matrix synthesis (^35S-sulfate incorporation)” value was “increase”. Besides, the “cartilage matrix loss (% sGAG loss)” value in experiment [2] is reported as “reduced”.

On to “wtIGF: Wild-type IGF-1 (R&D systems 291-G1), control [reference compound]”, for which the “cartilage matrix synthesis (^35S-sulfate incorporation)” value in experiment [1] is “increased”. In experiment [2], the “cartilage matrix loss (% sGAG loss)” value was “reduced”.
